From patent US10214492B2, “Heterocyclic inhibitors of MCT4” (Vettore, LLC, priority 2016, dated 2019) come the findings set out here.

Some results are limits rather than exact numbers.

A short description of data set [1]: Metabolic stability in mouse liver microsomes (in vitro t1/2). The class given is in vitro ADME. Conditions: for half-life at 2 µM / Mouse microsome t1/2, min: mouse liver microsomes 0.5 mg/mL, 2 μM compound; for half-life at 2 µM: read-out: Mouse microsome t1/2, min; for Mouse microsome % 60 min: mouse liver microsomes. Summed up: (§1)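 Liver microsomes (0.5 mg/mL final) incubated with test compound at 2 μM final plus NADPH; samples taken at 0, 15, 30, 45 and 60 min. Parent remaining quantified by LC-MS/MS; k from ln(% remaining) vs time regression, in vitro t1/2 = −0.693/k.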
For orientation: Liver microsomes are a subcellular fraction often used to study metabolism.

A short description of data set [2]: Adjuvant-induced arthritis model in rat: Difference of Weight Bearing test (DWB). The class given is in vivo. Conditions: SD rat, CFA-induced arthritis; PO 3 days post CFA; compared to Dexamethasone.
Data set [3] is described as follows: Pharmacokinetic assay in rat (IV 3 mg/kg, PO 10 mg/kg). The class given is in vivo. Conditions: Male Sprague-Dawley rat; for Rat F: oral bioavailability; for Rat F / half-life: PO 10 mg/kg; for half-life / Vd: plasma; for half-life: read-out: Rat t1/2 (converted); for Vd: volume of distribution, read-out: Rat Vss. From the text:
(§2) The following are assays that may be used to evaluate the pharmacokinetic properties of Formula (I) in mouse or rat. The assays follow a common procedure recited below.
(§3) 1. […] For PO (oral gavage), DMSO/PEG400 (10:90). Formulations freshly prepared on the day of dosing or prior to dosing. Storage at room temperature.
(§4) 2. Test Species: For Mouse: Male CD1 strain, approximately 6-8 weeks in age, approximately 20-30 g. For Rat: Male Sprague-Dawley strain, approximately 6-8 weeks in age, approximately 200-300 g.
(§5) 3. Dose Level: For IV, 3 mg/kg. For PO, 10 mg/kg.
(§6) 4. Number of animals: 3 per assay.
(§7) 5. PK time points: For IV (plasma): 5 min, 15 min, 1, 2, 4, 6, 8, 24 h post dose. For PO (plasma): 15 min, 30 min, 1, 2, 4, 6, 8, 24 h post dose.
(§8) 6. Blood Sample Collection and Processing. Blood was collected (˜0.2 mL per time point) from jugular vein. Blood of each sample was transferred into plastic micro centrifuge tubes containing anticoagulant of EDTA-K2. Blood samples were centrifuged at 2,000 g for 5 minutes at 4° C. to obtain plasma.
(§9) 7. Samples Analysis: Plasma samples were analyzed using LC/MS/MS method, and pharmacokinetic parameters (half-life: t1/2; oral bioavailability: F; volume of distribution: Vss).

Data set [4] is described as follows: Adjuvant-induced arthritis model in rat: Mechanical Allodynia test (MA, Von Frey). Conditions: SD rat, CFA-induced arthritis; PO 3 days post CFA; compared to Dexamethasone. The class given is in vivo.
The nature of data set [5]: Pharmacokinetic assay in mouse (IV 3 mg/kg, PO 10 mg/kg). Format: in vivo. Conditions: Male CD1 mouse; for Mouse F: oral bioavailability; for Mouse F / half-life: PO 10 mg/kg; for half-life / Vd: plasma; for half-life: read-out: Mouse t1/2 (converted); for Vd: volume of distribution, read-out: Mouse Vss.
Description: as §2, §3, §4, §5, §6, §7, §8, §9

The nature of data set [6]: Metabolic stability in human liver microsomes (in vitro t1/2). The class given is in vitro ADME. Conditions: for half-life at 2 µM: human liver microsomes 0.5 mg/mL, 2 μM compound, read-out: Human microsome t1/2, min; for Human microsome % 60 min: human liver microsomes. Summed up:
as §1

The target of data set [7] is MCT1 (Homo sapiens (Human), UniProt P53985). The data set is described as follows: Assay 4: MCT1-mediated lactate transport in BT20 breast cancer cells. The class given is cell-based. Conditions: Table 27. Summed up: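 BT20 cells loaded with BCECF-AM (30 mM DMSO stock) for 5 min at 37° C, washed and resuspended in Tyrode's Solution pH 7.4. Lactate uptake tracked via BCECF intracellular pH signal after adding 10 mM L-lactate.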
MCT1, sequence (P53985 whole entry): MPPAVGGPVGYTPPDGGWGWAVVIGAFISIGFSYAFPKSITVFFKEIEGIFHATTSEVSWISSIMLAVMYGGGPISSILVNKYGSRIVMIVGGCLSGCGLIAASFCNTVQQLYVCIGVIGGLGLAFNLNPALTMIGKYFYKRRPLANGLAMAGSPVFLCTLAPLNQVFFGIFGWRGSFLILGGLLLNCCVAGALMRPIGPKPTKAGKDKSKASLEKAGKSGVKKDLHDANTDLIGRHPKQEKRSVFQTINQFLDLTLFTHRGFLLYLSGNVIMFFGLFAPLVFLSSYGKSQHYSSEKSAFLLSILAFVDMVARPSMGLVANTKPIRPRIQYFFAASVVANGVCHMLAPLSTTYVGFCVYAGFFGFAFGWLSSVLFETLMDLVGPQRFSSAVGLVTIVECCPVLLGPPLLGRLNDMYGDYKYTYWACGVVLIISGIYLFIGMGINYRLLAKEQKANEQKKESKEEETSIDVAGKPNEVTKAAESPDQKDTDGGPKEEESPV
MCT1, sequence (P35613 140-385 partner): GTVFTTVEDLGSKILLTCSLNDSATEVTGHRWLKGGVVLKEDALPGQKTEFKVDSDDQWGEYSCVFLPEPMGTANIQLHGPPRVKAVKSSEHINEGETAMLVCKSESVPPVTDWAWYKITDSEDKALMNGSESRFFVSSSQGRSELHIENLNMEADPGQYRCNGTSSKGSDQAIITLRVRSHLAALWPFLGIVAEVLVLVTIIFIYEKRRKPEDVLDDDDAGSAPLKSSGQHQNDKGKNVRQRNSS

In data set [8] the target is MCT4 (Homo sapiens (Human), UniProt O15427). The experiment in a line: Assay 3: MCT4-mediated lactate transport in MDA-MB-231 breast cancer cells. Format: cell-based. Conditions: MDA-MB-231 cells; lactate transport. In a few lines:
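MDA-MB-231 cells loaded with BCECF-AM, 5 min at 37° C, washed and resuspended in Tyrode's Solution, pH 7.4. MCT4 lactate/proton symport followed as the intracellular pH change reported by BCECF fluorescence.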

Data set [9] in a line: Metabolic stability in rat liver microsomes (in vitro t1/2). Format: in vitro ADME. Conditions: for half-life at 2 µM: rat liver microsomes 0.5 mg/mL, 2 μM compound, read-out: Rat microsome t1/2, min; for Rat microsome % 60 min: rat liver microsomes. In a few lines: as §1

MCT4, sequence (O15427 whole entry, looked up): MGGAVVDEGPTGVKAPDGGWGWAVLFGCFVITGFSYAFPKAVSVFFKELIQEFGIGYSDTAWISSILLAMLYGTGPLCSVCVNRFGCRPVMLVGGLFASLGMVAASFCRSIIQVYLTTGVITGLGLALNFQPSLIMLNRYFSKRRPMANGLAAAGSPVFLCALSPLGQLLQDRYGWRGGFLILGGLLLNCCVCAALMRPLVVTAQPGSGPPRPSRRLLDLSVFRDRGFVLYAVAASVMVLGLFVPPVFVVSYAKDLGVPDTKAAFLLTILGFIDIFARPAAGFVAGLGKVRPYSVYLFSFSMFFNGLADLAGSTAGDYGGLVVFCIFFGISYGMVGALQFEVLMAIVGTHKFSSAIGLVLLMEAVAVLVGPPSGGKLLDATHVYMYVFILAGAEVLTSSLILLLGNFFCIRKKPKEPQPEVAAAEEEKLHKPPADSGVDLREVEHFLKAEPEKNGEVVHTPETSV
MCT4, sequence (P35613 whole entry partner, looked up): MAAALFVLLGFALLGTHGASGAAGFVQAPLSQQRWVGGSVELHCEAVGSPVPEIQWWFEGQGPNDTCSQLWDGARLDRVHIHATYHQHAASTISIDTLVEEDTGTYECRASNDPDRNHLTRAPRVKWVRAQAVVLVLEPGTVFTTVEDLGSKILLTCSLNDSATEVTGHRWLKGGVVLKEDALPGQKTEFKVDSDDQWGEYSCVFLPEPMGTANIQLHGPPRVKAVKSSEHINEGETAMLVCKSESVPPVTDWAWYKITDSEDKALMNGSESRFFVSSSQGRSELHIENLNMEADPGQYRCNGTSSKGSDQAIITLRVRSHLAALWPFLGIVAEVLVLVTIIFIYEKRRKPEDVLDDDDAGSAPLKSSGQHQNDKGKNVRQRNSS

As for `COc1cccc(-c2cc(COC(C)(C)C(=O)O)nn2Cc2ccccc2Cl)c1` [Example 14, 2-([1-[(2-Chlorophenyl)methyl]-5-(3-methoxyphenyl)1H-pyrazol-3-yl]methoxy)-2-methylpropanoic acid], in [1], the half-life at 2 µM was determined as 21.7 h and the “Mouse microsome % 60 min” value was 95%. Besides, the “Difference in Weight Bearing, Minimal Efficacious Dose” value (“Difference in Weight Bearing” for short) in data set [2] is 30 mg/kg. Further, in [3], the “Rat F” value is given as 64%, the half-life was 3.8 h and the Vd came out at 1.3 L/kg. Also, the “Mechanical Allodynia (Von Frey), Minimal Efficacious Dose” value (“Mechanical Allodynia (Von Frey)” below) in [4] is given as 30 mg/kg. For the same molecule, in data set [5], the “Mouse F” value worked out at 100%, the half-life is 5.4 h and the Vd was 0.79 L/kg. In data set [6], the half-life at 2 µM worked out at 4.08 h and the “Human microsome % 60 min” value was 82%.
By IC50 is commonly meant the concentration that inhibits the measured activity by half. Read a low IC50 as greater potency. Take `COc1cc(OC)cc(-c2cc(COC(C)(C)C(=O)O)nn2-c2ccccc2Cl)c1` [Example 179, 2-([1-(2-Chlorophenyl)-5-(3,5-dimethoxy-phenyl)-1H-pyrazol-3-yl]methoxy)-2-methylpropanoic acid]: in data set [1], the “Mouse microsome t1/2, min” value was “∞” and the “Mouse microsome % 60 min” value came to 98%. Besides, the IC50 in data set [7] is above 100000 nM. Besides, the “Difference in Weight Bearing” value in [2] is given as at most 10 mg/kg. In data set [3], the “Rat F” value is 76%, the half-life is 2.2 h and the Vd worked out at 0.3 L/kg. The same molecule came in with an IC50 in [8] of 13 nM. In data set [4], the “Mechanical Allodynia (Von Frey)” value is below 10 mg/kg. Further, in data set [6], the half-life at 2 µM was determined as 10.7 h and the “Human microsome % 60 min” value amounted to 93%. For the same molecule, in data set [9], the half-life at 2 µM turned out to be 5.3 h and the “Rat microsome % 60 min” value is given as 85%.
Regarding `CCOc1cc(OCC)cc(-c2cc(COC(C)(C)C(=O)O)nn2-c2ccccc2Cl)c1` [Example 180, 2-([1-(2-Chlorophenyl)-5-(3,5-diethoxy-phenyl)-1H-pyrazol-3-yl]methoxy)-2-methylpropanoic acid], in data set [1], the “Mouse microsome t1/2, min” value is on record as “∞” and the “Mouse microsome % 60 min” value worked out at 103%. The molecule further had a 50% inhibitory concentration (IC50) in data set [7] of 28000 nM. In data set [2], the “Difference in Weight Bearing” value is listed as above 10 mg/kg. In addition, in data set [3], the “Rat F” value turned out to be 49%, the half-life was 4.4 h and the Vd was determined as 0.39 L/kg. In [8], this molecule displayed an IC50 of 2.9 nM. In addition, the “Mechanical Allodynia (Von Frey)” value in [4] was above 10 mg/kg. Further, in data set [6], the half-life at 2 µM was 4.6 h and the “Human microsome % 60 min” value is given as 88%. Besides, in [9], the half-life at 2 µM stood at 38.2 h and the “Rat microsome % 60 min” value turned out to be 98%.
With `Cn1ncc2cccc(-n3nc(COC(C)(C)C(=O)O)cc3-c3cccc(OC4CC4)c3)c21` [Example 191, 2-([5-(3-Cyclopropoxyphenyl)-1-(1-methyl-1H-indazol-7-yl)-1H-pyrazol-3-yl]-methoxy)-2-methylpropanoic acid], in data set [1], the half-life at 2 µM was found to be 16.8 h and the “Mouse microsome % 60 min” value came to 97%. In data set [7], the IC50 came to 16000 nM. In addition, the “Difference in Weight Bearing” value in [2] is listed as above 10 mg/kg. Also, in data set [3], the “Rat F” value came out at 97%, the half-life was 6.3 h and the Vd was 1 L/kg. In [8], this molecule had an IC50 of 17 nM. In addition, in data set [4], the “Mechanical Allodynia (Von Frey)” value is above 10 mg/kg. Besides, in data set [6], the half-life at 2 µM was 23.4 h and the “Human microsome % 60 min” value was 98%. In data set [9], the half-life at 2 µM is 9.27 h and the “Rat microsome % 60 min” value was determined as 94%.
On to `COc1cc(OC)cc(-c2cc(COC(C)(C)C(=O)O)nn2Cc2ccccc2Cl)c1` [Example 224, 2-([1-[(2-Chlorophenyl)methyl]-5-(3,5-di-methoxyphenyl)-1H-pyrazol-3-yl]methoxy)-2-methylpropanoic acid], for which, in data set [1], the half-life at 2 µM worked out at 13.8 h and the “Mouse microsome % 60 min” value was 98%. Besides, in data set [7], 30000 nM corresponded to half-maximal inhibition (IC50). Besides, in [2], the “Difference in Weight Bearing” value is given as at most 10 mg/kg. In data set [3], the “Rat F” value is 53%, the half-life was 2.6 h and the Vd came out at 1.3 L/kg. Besides, the IC50 in data set [8] came to 4.1 nM. In data set [4], the “Mechanical Allodynia (Von Frey)” value is at most 10 mg/kg. In data set [6], the half-life at 2 µM worked out at 12.3 h and the “Human microsome % 60 min” value stood at 91%. Further, in data set [9], the half-life at 2 µM worked out at 2.2 h and the “Rat microsome % 60 min” value is reported as 73%.
The molecule `CC(C)(OCc1cc(-c2cccc(OC3CCC3)c2)n(-c2ccccc2N2CCC2)n1)C(=O)O` [Example 260, 2-([1-[2-(Azetidin-1-yl)phenyl]-5-(3-cyclobutoxyphenyl)-1H-pyrazol-3-yl]methoxy)-2-methylpropanoic acid] had an IC50 in [7] of 26000 nM. In addition, in [2], the “Difference in Weight Bearing” value turned out to be 1 mg/kg. In data set [3], the “Rat F” value is recorded as 85%, the half-life was 3.7 h and the Vd worked out at 0.2 L/kg. The same molecule gave an IC50 in data set [8] of 0.83 nM. Besides, the “Mechanical Allodynia (Von Frey)” value in data set [4] came to 1 mg/kg. Further, in data set [5], the “Mouse F” value is 86%, the half-life is 5.2 h and the Vd was 0.22 L/kg.
For `CCOc1ccccc1Cn1nc(CO[C@](C)(CC)C(=O)O)cc1-c1cc(OC)cc(OC)c1` [Example 264, (2R)-2-([5-(3,5-Dimethoxyphenyl)-1-[(2-ethoxyphenyl)methyl]-1H-pyrazol-3-yl]methoxy)-2-methylbutanoic acid], the 50% inhibitory concentration (IC50) in [7] was determined as 10000 nM. In addition, in [2], the “Difference in Weight Bearing” value amounted to 1 mg/kg. Besides, in data set [3], the “Rat F” value worked out at 100%, the half-life was 4.6 h and the Vd was 2.5 L/kg. The molecule further had an IC50 in data set [8] of 0.35 nM. Also, in [4], the “Mechanical Allodynia (Von Frey)” value came to 1 mg/kg. For the same molecule, in data set [5], the “Mouse F” value worked out at 94%, the half-life is 2.7 h and the Vd was 1.1 L/kg.
`CC[C@@](C)(OCc1cc(-c2cccc(OC3CC3)c2)n(-c2ccccc2N2CCC2)n1)C(=O)O` [Example 266] gave an IC50 in data set [7] of 64000 nM. For the same molecule, the “Difference in Weight Bearing” value in data set [2] was determined as 3 mg/kg. In data set [3], the “Rat F” value is given as 100%, the half-life was 2.7 h and the Vd is 0.23 L/kg. In addition, in data set [8], half-maximal inhibition (IC50) required 0.36 nM. The “Mechanical Allodynia (Von Frey)” value in data set [4] worked out at 3 mg/kg. In addition, in data set [5], the “Mouse F” value was found to be 100%, the half-life was 3.8 h and the Vd turned out to be 0.36 L/kg.
`CCCn1ncc2ccc(-c3cc(CO[C@](C)(CC)C(=O)O)nn3-c3ccccc3N3CCC3)cc21` [Example 267, (2R)-2-([1-(2-(azetidin-1-yl)phenyl]-5-(1-propyl-1H-indazol-6-yl)-1H-pyrazol-3-yl]methoxy)-2-methylbutanoic acid] came in with an IC50 in data set [7] of 11000 nM. Also, the “Difference in Weight Bearing” value in data set [2] came to 3 mg/kg. For the same molecule, in [3], the “Rat F” value is listed as 54%, the half-life was 2.6 h and the Vd was determined as 7.7 L/kg. In data set [8], this molecule gave an IC50 of 0.57 nM. For the same molecule, the “Mechanical Allodynia (Von Frey)” value in [4] came to 3 mg/kg. For the same molecule, in data set [5], the “Mouse F” value is listed as 64%, the half-life is 3.3 h and the Vd stood at 3.9 L/kg.
With `CCn1ncc2ccc(-c3cc(CO[C@](C)(CC)C(=O)O)nn3-c3ccccc3N3CCCC3)cc21` [Example 268, (2R)-2-([5-(1-ethyl-1H-indazol-6-yl)-1-[2-(pyrrolidin-1-yl)phenyl)-1H-pyrazol-3-yl]methoxy)-2-methylbutanoic acid], in [7], the IC50 stood at 36000 nM. The “Difference in Weight Bearing” value in [2] is reported as 1 mg/kg. Also, in [3], the “Rat F” value was 57%, the half-life is 2.2 h and the Vd was found to be 0.76 L/kg. Inhibition in [8] was half-maximal at 0.3 nM (IC50). In addition, the “Mechanical Allodynia (Von Frey)” value in data set [4] turned out to be 1 mg/kg. Besides, in [5], the “Mouse F” value is on record as 77%, the half-life is 2.7 h and the Vd is 0.77 L/kg.
